Test in all cases: relative viability (nuclei count vs DMSO), 5 days (fraction); higher = more cells survive
Compound in experiment [1]: C1=CC2=NC=CN=C2C=C1/C=C/3\C(=O)NC(=O)S3 + COc1cccc2cc(-c3nc([C@H]4CC[C@H](C(=O)O)CC4)n4ncnc(N)c34)[nH]c12 [OSI-027] (partner 0.5 µM)
In a few lines: (§1)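 The day after seeding in 1536-well plates, lung cancer cell lines were treated by pin tool with a single drug, or with a fixed anchor-drug dose together with five library-drug doses (not always all listed) in √10 steps. After 5 days, a combined fix-and-stain solution (final 0.05% Triton X-100, 1% formaldehyde, 1 ug/ml Hoechst) was added. Nuclei counted on 4× images gave relative viability as treated counts over vehicle counts, reported as the median of duplicate plates.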

Compound in experiment [2]: C1=CC2=NC=CN=C2C=C1/C=C/3\C(=O)NC(=O)S3 + CC1(C)CCC(c2ccc(Cl)cc2)=C(CN2CCN(c3ccc(C(=O)NS(=O)(=O)c4ccc(N[C@H](CCN5CCOCC5)CSc5ccccc5)c(S(=O)(=O)C(F)(F)F)c4)cc3)CC2)C1 [Navitoclax] (partner 0.5 µM)
In a few lines:
as §1

Compound in the experiment “BGJ398 + Linsitinib”: CCN1CCN(c2ccc(Nc3cc(N(C)C(=O)Nc4c(Cl)c(OC)cc(OC)c4Cl)ncn3)cc2)CC1 [BGJ398] + C[C@]1(O)C[C@@H](c2nc(-c3ccc4ccc(-c5ccccc5)nc4c3)c3c(N)nccn32)C1 [Linsitinib] (partner 1 µM)
The gist of the method: as §1

Compound in the experiment “BGJ398 + Tozasertib”: CCN1CCN(c2ccc(Nc3cc(N(C)C(=O)Nc4c(Cl)c(OC)cc(OC)c4Cl)ncn3)cc2)CC1 [BGJ398] + Cc1cc(Nc2cc(N3CCN(C)CC3)nc(Sc3ccc(NC(=O)C4CC4)cc3)n2)n[nH]1 [Tozasertib] (partner 0.1 µM)
In a few lines: as §1

In the case of UMC-11, the relative viability in experiment [1] (first compound 0.02 µM) was found to be 0.56; in experiment [1] (first compound 0.06325 µM), 0.527; in experiment [1] (first compound 0.2 µM) it was 0.552; in experiment [1] (first compound 0.6325 µM), 0.475; in experiment [1] (first compound 2 µM), 0.439; in experiment [2] (first compound 0.02 µM), 0.296. Besides, the relative viability in experiment [2] (first compound 0.06325 µM) was 0.397; in experiment [2] (first compound 0.2 µM) it was 0.312; in experiment [2] (first compound 0.6325 µM), 0.307; in experiment [2] (first compound 2 µM), 0.302; with BGJ398 + Linsitinib (first compound 0.01 µM), 1.01; with BGJ398 + Linsitinib (first compound 0.03162 µM), 0.982. The relative viability with BGJ398 + Linsitinib (first compound 0.1 µM) was found to be 1.04; in the experiment with BGJ398 + Linsitinib (first compound 0.3162 µM), 1.03; with BGJ398 + Linsitinib (first compound 1 µM), 1.01; with BGJ398 + Tozasertib (first compound 0.01 µM), 0.2; in the experiment with BGJ398 + Tozasertib (first compound 0.03162 µM), 0.202; with BGJ398 + Tozasertib (first compound 0.1 µM), 0.207. Besides, the relative viability came to 0.206 in the experiment with BGJ398 + Tozasertib (first compound 0.3162 µM) and 0.235 with BGJ398 + Tozasertib (first compound 1 µM).
